Test results as given in patent US20010044445A1, “AZOLE INHIBITORS OF CYTOKINE PRODUCTION” (priority 1999, published 2001).

Tests used:
[1] = system: Human peripheral blood mononuclear cells; assay: Human Concanavalin-A Proliferation Assay (Con HU Assay); assay type: cell-based; conditions: Homo sapiens, PBMC, concanavalin-A stimulated human PBMC; for inhibition at 10 µM / inhibition at 1 µM / inhibition at 100 µM: 72 h, 3 days, read-out: % Inhibition of proliferation (at concentrations of 1,10, or 100 μm); for inhibition at 10 µM: concentration 10 μm (in parentheses in the cell); for IC50: tritiated thymidine; for inhibition at 1 µM: concentration 1 μm (in parentheses in the cell); for inhibition at 100 µM: concentration 100 μm (in parentheses in the cell)
Summary of the method: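 Proliferation read as tritiated thymidine uptake (0.5 μCi/well, 6 h pulse on day 3) in human PBMC cultured 3 days with 2.5 μg/ml (final) concanavalin-A. Cells, 50,000 per well in supplemented RPMI 1640 with 10% FBS, received compound 15 min before mitogen.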

Row | Compound | melting point | inhibition at 10 µM [1] | IC50 [1] | inhibition at 1 µM [1] | inhibition at 100 µM [1]
1 | O=C(Nc1ccc(-n2nc(C(F)(F)F)cc2C(F)(F)F)cc1)c1c(F)cccc1C(F)(F)F [Example 213, N-[4-[3,5-bis(trifluoromethyl)-1H-pyrazol-1-yl]phenyl]-2-fluoro-6-(trifluoromethyl)benzamide] | 175 to 176 °C | 100% | 434 nM |  | 
2 | O=C(Nc1ccc(-n2nc(C(F)(F)F)cc2C(F)(F)F)cc1)c1cccc(Cl)c1F [Example 214, N-[4-[3,5-bis(trifluoromethyl)-1H-pyrazol-1-yl]phenyl]-3-chloro-2-fluorobenzamide] | 113 to 116 °C | 100% | 68 nM |  | 
3 | COc1ccc(C(=O)Nc2ccc(-n3nc(C(F)(F)F)cc3C(F)(F)F)cc2)c(Cl)c1 [Example 215, N-[4-[3,5-bis(trifluoromethyl)-1H-pyrazol-1-yl]phenyl]-2-chloro-4-methoxybenzamide] | 140 to 143 °C | 100% | 126 nM |  | 
4 | O=C(Nc1ccc(-n2nc(C(F)(F)F)cc2C(F)(F)F)cc1)c1c(Cl)ccc([N+](=O)[O-])c1Cl [Example 216, N-[4-[3,5-bis(trifluoromethyl)-1H-pyrazol-1-yl]phenyl]-2,6-dichloro-3-nitrobenzamide] | 160 to 161 °C | 100% | 267 nM |  | 
5 | O=C(Nc1ccc(-n2nc(C(F)(F)F)cc2C(F)(F)F)cc1)c1ccc(F)c(F)c1 [Example 218, N-[4-[3,5-bis(trifluoromethyl)-1H-pyrazol-1-yl]phenyl]-3,4-difluorobenzamide] | 183 to 185 °C | 100% | 136 nM |  | 
6 | COc1ccc(Br)c(C(=O)Nc2ccc(-n3nc(C(F)(F)F)cc3C(F)(F)F)cc2)c1 [Example 219, N-[4-[3,5-bis(trifluoromethyl)-1H-pyrazol-1-yl]phenyl]-2-bromo-5-methoxybenzamide] | 179 to 181 °C | 100% | 214 nM |  | 
7 | O=C(Nc1ccc(-n2nc(C(F)(F)F)cc2C(F)(F)F)cc1)c1ccc(Cl)cc1O [Example 220, N-[4-[3,5-bis(trifluoromethyl)-1H-pyrazol-1-yl]phenyl]-4-chloro-2-hydroxybenzamide] | 200 to 202 °C | 100% | 4230 nM |  | 
8 | COc1ccc(C(=O)Nc2ccc(-n3nc(C(F)(F)F)cc3C(F)(F)F)cc2)cc1Br [Example 221, N-[4-[3,5-bis(trifluoromethyl)-1H-pyrazol-1-yl]phenyl]-3-bromo-4-methoxybenzamide] | 197 to 198 °C | 98% | 411 nM |  | 
9 | O=C(Nc1ccc(-n2nc(C(F)(F)F)cc2C(F)(F)F)cc1)c1cc(F)c(F)cc1Cl [Example 223, N-[4-[3,5-bis(trifluoromethyl)-1H-pyrazol-1-yl]phenyl]-2-chloro-4,5-difluorobenzamide] | 149 to 152 °C | 100% | 93 nM |  | 
10 | O=C(Nc1cccc(-n2nc(C(F)(F)F)cc2C(F)(F)F)c1)c1c(F)cccc1F [Example 224, N-[3-[3,5-bis(trifluoromethyl)-1H-pyrazol-1-yl]phenyl]-2,6-difluorobenzamide] | 142 to 143 °C |  |  | 2% | 
11 | O=C(Nc1ccc(-n2nc(C(F)(F)F)cc2C(F)(F)F)cc1)c1cc(F)c(Cl)cc1F [Example 225, N-[4-[3,5-bis(trifluoromethyl)-1H-pyrazol-1-yl]phenyl]-4-chloro-2,5-difluorobenzamide] | 160 to 162 °C | 98% | 154 nM |  | 
12 | O=C(Nc1ccc(-n2nc(C(F)(F)F)cc2C(F)(F)F)cc1)c1ccc(F)c(F)c1F [Example 226, N-[4-[3,5-bis(trifluoromethyl)-1H-pyrazol-1-yl]phenyl]-2,3,4-trifluorobenzamide] | 122 to 124 °C | 100% | 43 nM |  | 
13 | O=C(Nc1ccc(-n2nc(C(F)(F)F)cc2C(F)(F)F)cc1)c1cc(F)c(F)c(F)c1 [Example 227, N-[4-[3,5-bis(trifluoromethyl)-1H-pyrazol-1-yl]phenyl]-3,4,5-trifluorobenzamide] | 158 to 159 °C | 100% | 257 nM |  | 
14 | O=C(Nc1ccc(-n2nc(C(F)(F)F)cc2C(F)(F)F)cc1)c1cc(F)c(F)cc1F [Example 228, N-[4-[3,5-bis(trifluoromethyl)-1H-pyrazol-1-yl]phenyl]-2,4,5-trifluorobenzamide] | 109 to 111 °C | 99% | 147 nM |  | 
15 | O=C(Nc1ccc(-n2nc(C(F)(F)F)cc2C(F)(F)F)cc1)c1c(F)cc(F)cc1F [Example 229, N-[4-[3,5-bis(trifluoromethyl)-1H-pyrazol-1-yl]phenyl]-2,4,6-trifluorobenzamide] | 183 to 185 °C | 99% | 40 nM |  | 
16 | O=C(Nc1ccc(-n2nc(C(F)(F)F)cc2C(F)(F)F)cc1)c1c(F)ccc([N+](=O)[O-])c1F [Example 230, N-[4-[3,5-bis(trifluoromethyl)-1H-pyrazol-1-yl]phenyl]-2,6-difluoro-3-nitrobenzamide] | 187 to 189 °C |  |  | 64% | 
17 | O=C(Nc1ccc(-n2nc(C(F)(F)F)cc2C(F)(F)F)cc1)c1cc(F)cc(F)c1F [Example 231, N-[4-[3,5-bis(trifluoromethyl)-1H-pyrazol-1-yl]phenyl]-2,3,5-trifluorobenzamide] | 169 to 170 °C | 100% | 25 nM |  | 
18 | O=C(Nc1ccc(-n2nc(C(F)(F)F)cc2C(F)(F)F)cc1)c1c(F)cc(Cl)cc1Cl [Example 232, N-[4-[3,5-bis(trifluoromethyl)-1H-pyrazol-1-yl]phenyl]-2,4-dichloro-6-fluorobenzamide] | 185 to 188 °C | 99% | 172 nM |  | 
19 | O=C(Nc1ccc(-n2nc(C(F)(F)F)cc2C(F)(F)F)cc1)c1c(F)c(F)cc(F)c1F [Example 234, N-[4-[3,5-bis(trifluoromethyl)-1H-pyrazol-1-yl]phenyl]-2,3,5,6-tetrafluorobenzamide] | 235 to 237 °C | 99% | 61 nM |  | 
20 | O=C(Nc1ccc(-n2nc(C(F)(F)F)cc2C(F)(F)F)cc1)c1cc(F)c(F)c(F)c1F [Example 235, N-[4-[3,5-bis(trifluoromethyl)-1H-pyrazol-1-yl]phenyl]-2,3,4,5-tetrafluorobenzamide] | 138 to 140 °C | 100% | 107 nM |  | 
21 | Cc1ccc([N+](=O)[O-])c(C(=O)Nc2ccc(-n3nc(C(F)(F)F)cc3C(F)(F)F)cc2)c1 [Example 237, N-[4-[3,5-bis(trifluoromethyl)-1H-pyrazol-1-yl]phenyl]-5-methyl-2-nitrobenzamide] | 188 to 189 °C |  | 368 nM |  | 100%
22 | N#Cc1ccc(C(=O)Nc2cccc(-n3nc(C(F)(F)F)cc3C(F)(F)F)c2)cc1 [Example 238, N-[3-[3,5-bis(trifluoromethyl)-1H-pyrazol-1-yl]phenyl]-4-cyanobenzamide] | 133 to 134 °C |  |  | 3% | 
23 | O=C(Nc1ccc(-n2nc(C(F)(F)F)cc2C(F)(F)F)cc1)c1ccsc1 [Example 239, N-[4-[3,5-bis(trifluoromethyl)-1H-pyrazol-1-yl]phenyl]-3-thiophenecarboxamide] | 239 to 240 °C | 55% |  |  | 
24 | O=C(Nc1ccc(-n2nc(C(F)(F)F)cc2C(F)(F)F)cc1)c1ccno1 [Example 240, N-[4-[3,5-bis(trifluoromethyl)-1H-pyrazol-1-yl]phenyl]-5-isoxazolecarboxamide] | 202 to 204 °C | 84% | 507 nM |  | 
25 | O=C(Nc1ccc(-n2nc(C(F)(F)F)cc2C(F)(F)F)cc1)C1CCCO1 (stereo not drawn) [Example 241, N-[4-[3,5-bis(trifluoromethyl)-1H-pyrazol-1-yl]phenyl]tetrahydro-2-furancarboxamide] | 113 to 116 °C |  |  | 10% | 
26 | O=C(Nc1ccc(-n2nc(C(F)(F)F)cc2C(F)(F)F)cc1)C1CCCN1 (stereo not drawn) [Example 242, N-[4-[3,5-bis(trifluoromethyl)-1H-pyrazol-1-yl]phenyl]-2-pyrrolidinecarboxamide] | 82 to 84 °C |  |  | 3% | 
27 | O=C(Nc1ccc(-n2nc(C(F)(F)F)cc2C(F)(F)F)cc1)C1CCOC1 (stereo not drawn) [Example 243, N-[4-[3,5-bis(trifluoromethyl)-1H-pyrazol-1-yl]phenyl]tetrahydro-3-furancarboxamide] | 193 to 194 °C | 99% | 390 nM |  | 
28 | O=C(Nc1ccc(-n2nc(C(F)(F)F)cc2C(F)(F)F)cc1)c1cnns1 [Example 244, N-[4-[3,5-bis(trifluoromethyl)-1H-pyrazol-1-yl]phenyl]-1,2,3-thiadiazole-5-carboxamide] | 213 to 214 °C | 94% | 523 nM |  | 
29 | O=C(Nc1ccc(-n2nc(C(F)(F)F)cc2C(F)(F)F)cc1)c1ccnc(Cl)c1 [Example 245, N-[4-[3,5-bis(trifluoromethyl)-1H-pyrazol-1-yl]phenyl]-2-chloro-4-pyridinecarboxamide] | 183 to 184 °C |  | 279 nM |  | 100%
